From patent US20240122865A1, “Methods of Protecting RNA” (Pfizer Inc., priority 2021, published 2024)

Columns and labels:
Format in all cases: biochemical, Trichoderma atroviride
FgenL model RNA [1] = experiment: TapeStation Assay, FgenL model RNA; parameters: Conc. FgenL#1 / Conc. FgenL#2: unit not given here; details: for % Control N = 1 / % Control N = 2 / % Control Average: FgenL RNA, 20 mM amino acids, 50 mM CAPS pH 11, 50° C. 15 min; for % Control N = 1 / % Control N = 2: vs Time 0; for % Control Average: vs Time 0, Avg N=2; for Conc. FgenL#1 / Conc. FgenL#2: intact FgenL RNA after 15 min at 50° C.; for Conc. FgenL#1: 20 mM amino acids in 50 mM CAPS pH 11, run #1; for Conc. FgenL#2: 20 mM amino acids in 50 mM CAPS pH 11, run #2
Description: (§1) These assays were performed with amino acids and compared to a no-degradation baseline control to gauge degree of protection imparted by the amino acid. Multiple functional assay approaches were used where differing endpoints were measured including a droplet digital PCR (ddPCR) assay where intact RNA sequence was quantitated, a size exclusion base hydrolysis degradation assay that used a size exclusion column to determine the degree of degradation occurring to an mRNA construct, and finally, a TapeStation assay that utilizes capillary electrophoresis and optical detection to measure intact RNA. […] Affinity selection by mass spectrometry (ASMS), native electrospray ionization mass spectrometry (nESI-MS) and nuclear magnetic resonance (NMR) may be used as several complementary approaches to ascertain compound binding to RNA. The latter techniques utilize MS to measure mass of bound compound alone (ASMS), or mass of RNA and bound compound (nESI-MS). The nESI-MS and NMR studies may be conducted to provide direct analytical quantification of resulting complex via measurement of mass (nESI-MS) or chemical shifts (NMR). The ASMS experiment is conducted to determine saturation binding of the compound to RNA where resulting apparent binding constants (KD,App) may be generated. Further descriptions of the functional and binding assays are provided in the section below.
(§2) In principle, samples are loaded to the instrument where electrophoresis separates component RNA's on the basis of mass, and subsequently analyzes these optically as they travel through the capillary.
(§3) RNA samples were diluted to the appropriate concentration to fall within the linear range of detection for the RNA ScreenTape Assay. Model Chi18 or FgenL RNAs were diluted to 50 ng/μL in 50 mM CAPS buffer pH 11. Amino acid stocks were made up in 50 mM CAPS pH 11 and re-adjusted to >pH 11 after solubilization. […] The samples were aliquoted to PCR tubes for each time point (Time 0 or 15 minutes). Degradation reaction: Samples were incubated at 50° C. for 0 to 15 minutes in a thermocycler, removed at the appropriate time point and placed on ice. Time 0 samples remained on ice.

FgenL model RNA [2] = details: percent protection, pH 11.0, 44° C., 16 hours, n = 2
Description: (§4) The ddPCR assays measure RNA integrity by converting intact RNA to cDNA by reverse transcription, then performing digital PCR in thousands of nanoliter-sized droplets for each sample. PCR is performed within each droplet, which allows for more sensitive detection of subtle changes in RNA concentration compared to traditional PCR or qPCR. Additionally, primers/probes specific to the 5′ end of the RNA/cDNA transcript(s) are used to assess fragment integrity—e.g. degraded RNA will have fewer 5′ positive droplets. The BioRad QX200 Droplet Digital PCR System was used for the ddPCR workflow.
(§5) Basic assay procedure: RNA samples (Chi18 or FgenL fragments) were diluted to 25 fg/μL or 10 fg/μL, respectively, in 50 mM […] buffer pH 11.0. Amino acid stocks were made up in 50 mM CAPS buffer, pH 11.0 and subsequently re-adjusted to pH 11.0, post solubilization. Amino acid stocks were tested in a dose-response format to determine EC50. An amino acid dilution plate containing a ˜300 mM (or appropriate) top-concentration of amino acid in 50 mM CAPS buffer was serially (half-log) diluted for 10 times. 0.6 μL of this compound dilution plate was spotted into a 96-well PCR plate (Thermo). Sample RNAs were added (6 μL) and incubated with test amino acid as described below.
(§6) Degradation reaction: Treated RNAs were incubated for 16 hours at 30° C. for Chi18 samples or 44° C. for FgenL samples. Upon completion of the degradation reaction, cDNA was made from the intact RNA by Reverse Transcription and ddPCR run for each sample (96 well plates). Positive 5′ droplet values were divided by the total accepted droplet values for each sample and a ratio value generated for each sample.
(§7) EC50 was determined by using a four parameter logistic equation: Y=A+((B−A)/(1+(C/X)D)); where Y is percent protection, X is compound concentration, A and B are minimum and maximum asymptotes, respectively, C is EC50, and D is Hill slope.

Chi18 model RNA [3] = experiment: TapeStation Assay, Chi18 model RNA; parameters: Conc. chi18#1 / Conc. chi18#2: unit not given here; details: for % Control N = 1 / % Control N = 2 / % Control Avg.: Chi18 RNA, 20 mM amino acids, 50 mM CAPS pH 11, 50° C. 15 min; for % Control N = 1 / % Control N = 2: vs Time 0; for % Control Avg.: vs Time 0, Avg N=2; for Conc. chi18#1 / Conc. chi18#2: intact Chi18 RNA after 15 min at 50° C.; for Conc. chi18#1: 20 mM amino acids in 50 mM CAPS pH 11, run #1; for Conc. chi18#2: 20 mM amino acids in 50 mM CAPS pH 11, run #2
Description: as §1, §2, §3

Chi18 model RNA [4] = experiment: Droplet Digital Polymerase Chain Reaction (ddPCR) Assay, Chi18; details: percent protection, pH 11.0, 30° C., 16 hours, n = 2
Description: as §4, §5, §6, §7

FgenL mRNA construct = experiment: Size Exclusion Base Hydrolysis Degradation Assay, FgenL; details: 25 mM amino acid; for T0 R1 peak area at 250 nm: FgenL 0.1 mg/mL, 50 mM CAPS, T=0, replicate 1; for T2 Avg, peak area as percentage of T=0 / T2 R1 peak area at 250 nm / T10 Avg, peak area as percentage of T=0 / T10 R1 peak area at 250 nm / T24 Avg, peak area as percentage of T=0 / T24 R1 peak area at 250 nm / T0 Avg, peak area as percentage of T=0: FgenL; for T2 Avg, peak area as percentage of T=0 / T2 R1 peak area at 250 nm / T10 Avg, peak area as percentage of T=0 / T10 R1 peak area at 250 nm / T24 Avg, peak area as percentage of T=0 / T24 R1 peak area at 250 nm: 50 mM CAPS pH 11, room temperature; for T2 Avg, peak area as percentage of T=0 / T2 R1 peak area at 250 nm: 2 hrs; for T2 R1 peak area at 250 nm / T10 R1 peak area at 250 nm / T24 R1 peak area at 250 nm: replicate 1; for T10 Avg, peak area as percentage of T=0 / T10 R1 peak area at 250 nm: 10 hrs; for T24 Avg, peak area as percentage of T=0 / T24 R1 peak area at 250 nm: 24 hrs; for T0 Avg, peak area as percentage of T=0: T=0 (reference)
Description: Basic assay procedure: RNA samples were diluted to 1.0 mg/mL in DNAase/RNAase free water. Amino acids were dissolved in water to a stock solution of 100 mM and a solution of 500 mM CAPS pH 11 was used. The two mRNA constructs tested were FgenL and Chi18. Each individual sample volume was 50 μL. To determine the amount of 1 M NaOH needed to adjust the final pH to 11.0 after the addition of all sample components, the sample volume was increased 100 fold (5 mL), the volume of 1 M NaOH recorded and this value was translated back down to the 50 μL sample volume.
The mRNA and amino acid were allowed to incubate for one hour prior to the addition of CAPS pH 11. All steps of the assay were conducted at room temperature.
Degradation reaction: After the CAPS addition, the samples were injected onto the Waters H-Class UPLC system to record the first timepoint, T=O. This resulting chromatogram was processed by integrating the area of absorbance at 250 nm for the mRNA construct. Immediately following this timepoint, the pH was adjusted to 11. Subsequent time points (2 hrs, 10 hrs, and 24 hrs) recorded the Absorbance Units (peak area) at 250 nm as a percentage of the peak area determined at T=O. Integration of the chromatogram for subsequent timepoints was conducted by analyzing the area of absorbance at 250 nm contained within the same time window in which the peak eluted in T=0 for the 100% intact mRNA.

## N[C@@H](CCC(=O)N[C@@H](CS)C(=O)NCC(=O)O)C(=O)O [Glutathione]
FgenL model RNA [1]
  % Control N = 1: 42.9%
  % Control N = 2: 35.7%
  % Control Average: 39.3%
  Conc. FgenL#1: 14.8
  Conc. FgenL#2: 12.4
FgenL model RNA [2]
  EC50: > 30 mM
Chi18 model RNA [3]
  % Control N = 1: 29.3%
  % Control N = 2: 26.7%
  % Control Avg.: 28.0%
  Conc. chi18#1: 15.6
  Conc. chi18#2: 14.1
Chi18 model RNA [4]
  EC50: > 30 mM
FgenL mRNA construct
  T0 R1 peak area at 250 nm: 16850
  T2 Avg, peak area as percentage of T=0: 37.7%
  T2 R1 peak area at 250 nm: 4627
  T10 Avg, peak area as percentage of T=0: 2.3%
  T10 R1 peak area at 250 nm: 0
  T24 Avg, peak area as percentage of T=0: 0.0%
  T24 R1 peak area at 250 nm: 0
  T0 Avg, peak area as percentage of T=0: 100.0%

## CC[C@H](C)[C@H](N)C(=O)O [Isoleucine]
FgenL model RNA [1]
  % Control N = 1: 12.2%
  % Control N = 2: 9.5%
  % Control Average: 10.8%
  Conc. FgenL#1: 4.22
  Conc. FgenL#2: 3.28
FgenL model RNA [2]
  EC50: > 30 mM
Chi18 model RNA [3]
  % Control N = 1: 19.3%
  % Control N = 2: 24.2%
  % Control Avg.: 21.8%
  Conc. chi18#1: 10.3
  Conc. chi18#2: 12.8
Chi18 model RNA [4]
  EC50: > 19 mM
FgenL mRNA construct
  T0 R1 peak area at 250 nm: 14903
  T2 Avg, peak area as percentage of T=0: 7.2%
  T2 R1 peak area at 250 nm: 1687
  T10 Avg, peak area as percentage of T=0: 0.0%
  T10 R1 peak area at 250 nm: 0
  T24 Avg, peak area as percentage of T=0: 0.0%
  T24 R1 peak area at 250 nm: 0
  T0 Avg, peak area as percentage of T=0: 100.0%

## C[C@H](N)C(=O)O [Alanine]
FgenL model RNA [1]
  % Control N = 1: 28.8%
  % Control N = 2: 23.2%
  Conc. FgenL#1: 9.93
  Conc. FgenL#2: 8.05
FgenL model RNA [2]
  EC50: > 30 mM
Chi18 model RNA [3]
  % Control N = 1: 35.3%
  % Control N = 2: 51.4%
  % Control Avg.: 43.3%
  Conc. chi18#1: 18.8
  Conc. chi18#2: 27.2
Chi18 model RNA [4]
  EC50: > 30 mM
FgenL mRNA construct
  T0 R1 peak area at 250 nm: 17478
  T2 Avg, peak area as percentage of T=0: 44.3%
  T2 R1 peak area at 250 nm: 7051
  T10 Avg, peak area as percentage of T=0: 0.0%
  T10 R1 peak area at 250 nm: 0
  T24 Avg, peak area as percentage of T=0: 0.0%
  T24 R1 peak area at 250 nm: 0
  T0 Avg, peak area as percentage of T=0: 100.0%
